Assay results: US10208029B2, “Photoacid compositions having extended lifetime of proton dissociation state” (University of Central Florida Research Foundation, Inc., priority 2013, dated 2019)

Assays:
[1] = pH of aqueous solution of photoacid 1 in the dark, under 419 nm irradiation and after light off; assay type: physicochemical
Source text: Photoacid 1 shown in FIG. 2B as MEH comprises an example disclosed PAH comprising a protonated photochromic merocyanine (MEH) with a propyl sulfonate group on the nitrogen of the indoline moiety. It was discovered that photoacid 1 can reversibly change the proton concentration of its solution by over 100 times.
In an aqueous solution, the MEH form of 1 is predominantly at room temperature in the dark, which was proven by UV-Vis and NMR spectroscopy.
Proton dissociation of the cis-MEH produces cis-ME, which undergoes a nucleophilic ring closing reaction to yield the product shown as SP in FIG. 2B and a proton. The product formed by the ring closing process has a stabilized proton dissociation state.
When the light was turned off, the pH value increased quickly to ˜4.5 in ˜1 min, gradually returning to its original level in ˜5 min. This cycle can be repeated many times. Therefore, the proton concentration in a solution having photoacid 1 can be simply controlled by switching a visible light source on and off.

[2] = Reversibility of photo-induced proton release; assay type: physicochemical; conditions: PBS buffer with a pH of 7.4
Source text: Referring now to FIGS. 6A-6QQ, the structures of 43 photoacids designed based on FIG. 3A including the photoacids 1 and 40 are shown. All of them have been synthesized. […]. Analogs of photoacid 1 have been extensively studied. Electron-donating groups (-Me and —OMe) on the phenolic moiety increase the stability of the photoacid towards hydrolysis and faster the reverse reaction rate. Photoacids with extended conjugated structures can absorb light and thus function at longer wavelengths than photoacid 1. For example, photoacid 20 has a maximum absorption at 538 nm in 95% ethanol solution, which is about 100 nm longer than that of photoacid 1. Photoacids 10, 17 and 39 have acrylate moieties. They can be used to make photoacid polymers via chain-growth polymerization or thiol-ene reaction. […]. […] In photoacid 34, a benzothiazolium is used as the EA part since it improves the reversibility of the photoreaction.

SMILES	reversible change of proton concentration of its solution [1]	pH value of aqueous solution ([1]; 5.88×10^−4 M aqueous solution, 25° C., dark)	pH under irradiation ([1]; aqueous solution irradiated with 419 nm light)	pH drop upon irradiation ([1]; aqueous solution, 419 nm light)	time to return to original pH level after light off ([1]; aqueous solution, dark)	pKa ([1]; calculated from pH of 5.88×10^−4 M aqueous solution at 25° C., dark state)	pH value after the light was turned off ([1]; ~1 min after light off)	reversible proton release [2]
CC1(C)C(/C=C/c2ccccc2O)=[N+](CCCS(=O)(=O)[O-])c2ccccc21 [photoacid 1]	over 100 times	5.5	3.3	more than 2 units	~5 min	7.8	~4.5	
O=S(=O)([O-])CCC[n+]1c(/C=C/c2cccc3cn[nH]c23)sc2ccccc21 [photoacid 34]								can reversibly release a proton
